Here are results for 1 substance from patent US12365710B2, “HMGB1 protein derivatives for the removal of biofilms” (RESEARCH INSTITUTE AT NATIONWIDE CHILDREN'S HOSPITAL, priority 2018, dated 2025).

Assay [1] has as its system established biofilms formed by high priority human pathogens. The assay can be described thus: in vitro disruption of established biofilms of high priority pathogens (panel). Type of assay: cell-based, UPEC, B. cenocepacia, NTHI, ESKAPE pathogens. The note with it: single dose 200 nM, biofilms formed 24 h, 16 h exposure. Here is the method: (§1) FIGS. 5A-5E: Anti-biofilm effect of HMGB1 variants on high priority bacterial pathogens. Indicated HMGB1 variants or antibodies against DNABII proteins (α-1HFEc 1gG, 1 μM) were added at 24 h to the respective preformed bacterial biofilms, in vitro. After 16 h of Incubation, biofilms were stained with LIVE/DEAD®, then visualized via confocal laser scanning microscopy. Images were analyzed by COMSTAT to calculate average thickness and comparison to control was plotted. (FIG. 5A) Full-length HMGB1 isoforms (200 nM unless otherwise indicated) added to UPEC, B. cenocepacia, NTHI, or ESKAPE pathogens. 800 nM rHMGB1 and 200 nM mHMGB1 were added for S. aureus (ESKAPE). […] Statistical significance compared to control was assessed with unpaired t-tests, *P<0.05. […] Images were analyzed by COMSTAT to calculate average thickness and total biomass. […]
(§2) HMGB1 disrupts pathogenic biofilms: To test the effect of HMGB1 on bacterial biofilms (FIG. 5), Applicant cloned (IMPACT®, NEB Ipswich, MA), expressed (in E. coli), and purified (heparin sepharose chromatography to >95% purity) tagless human recombinant HMGB1 (rHMGB1) and an engineered C45 S variant (mHMGB1) that mimics the reduced form of HMGB1. rHMGB1 readily forms an intramolecular disulfide bond between C23 and C45 that contributes to pro-inflammatory activity whereas mHMGB1 cannot. […]

The subject of the next assay is E. faecium biofilm. In words: in vitro disruption of established biofilms, CLSM and COMSTAT. Particulars: 800 nM rHMGB1, incubated 1 h (FIG. 5A). The assay is classed as cell-based. Here is the method: as §1, §2
A further assay deals with S. aureus biofilm. The description is as above. Type of assay: cell-based. The note with it: 800 nM rHMGB1 used (FIG. 5A). Here is the method:
as §1, §2

On to “rHMGB1: tagless human recombinant full length HMGB1 (1-215) expressed in E. coli”, for which the “disruption of established biofilms (average thickness and biomass) of high priority species” value in assay [1] is on record as “significant reduction”; in assay [1] (listed as Full length recombinant HMGB1) it was “significantly disrupt”. For the same substance, in the assay on E. faecium biofilm, the “concentration needed to disrupt E. faecium biofilm” value was “required a higher (albeit non-bactericidal) concentration”. For the same substance, the “concentration needed to disrupt S. aureus biofilm” value in the assay on S. aureus biofilm is reported as “required a higher (albeit non-bactericidal) concentration”.
